# In the supplement of paper PMC10307832:
# How the values were obtained:
# Test in all cases: relative viability (nuclei count vs DMSO), 5 days (fraction); higher = more cells survive
# LC-2-ad = test system: LC-2-ad
# How it was run: (§1)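 Values are medians from duplicate plates. Each reflects relative viability, defined as the nuclei count of treated wells over that of vehicle wells. Lung cancer cell lines in 1536-well plates were pin-tool dosed one day after seeding with one drug alone or with a fixed anchor-drug dose plus five library-drug doses (not always all listed) in √10 steps, then fixed, stained and imaged at 4× after 5 days.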
# NCI-H441 = test system: NCI-H441
# How it was run: as §1
# NCI-H596 = test system: NCI-H596
# How it was run: as §1
# NCI-H1915 = test system: NCI-H1915
# How it was run: as §1
# CAL-12T = test system: CAL-12T
# How it was run: as §1
# NCI-H520 = test system: NCI-H520
# How it was run: as §1
# NCI-H727 = test system: NCI-H727
# How it was run: as §1
# NCI-H2087 = test system: NCI-H2087
# How it was run: as §1
# H3255 = test system: H3255
# How it was run: as §1
# NCI-H1651 = test system: NCI-H1651
# How it was run: as §1
# A-427 = test system: A-427
# How it was run: as §1
# ABC-1 = test system: ABC-1
# How it was run: as §1
# NCI-H650 = test system: NCI-H650
# How it was run: as §1
# BEN = test system: BEN
# How it was run: as §1
# NCI-H1650 = test system: NCI-H1650
# How it was run: as §1
# NCI-H1944 = test system: NCI-H1944
# How it was run: as §1
# NCI-H661 = test system: NCI-H661
# How it was run: as §1
# LCLC-97TM1 = test system: LCLC-97TM1
# How it was run: as §1
# NCI-H460 = test system: NCI-H460
# How it was run: as §1
# NCI-H2023 = test system: NCI-H2023
# How it was run: as §1
# PC-3 [JPC-3] = test system: PC-3 [JPC-3]
# How it was run: as §1
# 201T = test system: 201T
# How it was run: as §1
smiles,measurement,setting,value
COc1nc(C)cnc1NS(=O)(=O)c1cccnc1-c1ccc(-c2nnco2)cc1 [Zibotentan] + CS(=O)(=O)N1CCN(Cc2cc3nc(-c4cccc5[nH]ncc45)nc(N4CCOCC4)c3s2)CC1 [Pictilisib] (partner 1 µM),relative viability,LC-2-ad; first compound 0.08 µM,0.48
same,relative viability,LC-2-ad; first compound 0.253 µM,0.406
same,relative viability,LC-2-ad; first compound 0.8 µM,0.527
same,relative viability,LC-2-ad; first compound 2.53 µM,0.435
same,relative viability,NCI-H441; first compound 0.08 µM,0.518
same,relative viability,NCI-H441; first compound 0.253 µM,0.39
same,relative viability,NCI-H441; first compound 0.8 µM,0.545
same,relative viability,NCI-H441; first compound 2.53 µM,0.632
same,relative viability,NCI-H596; first compound 0.08 µM,0.446
same,relative viability,NCI-H596; first compound 0.253 µM,0.417
same,relative viability,NCI-H596; first compound 0.8 µM,0.385
same,relative viability,NCI-H596; first compound 2.53 µM,0.428
same,relative viability,NCI-H1915; first compound 0.08 µM,1.01
same,relative viability,NCI-H1915; first compound 0.253 µM,0.955
same,relative viability,NCI-H1915; first compound 0.8 µM,0.873
same,relative viability,NCI-H1915; first compound 2.53 µM,0.96
same,relative viability,CAL-12T; first compound 0.08 µM,0.395
same,relative viability,CAL-12T; first compound 0.8 µM,0.453
same,relative viability,CAL-12T; first compound 2.53 µM,0.513
same,relative viability,NCI-H520; first compound 0.08 µM,0.336
same,relative viability,NCI-H520; first compound 0.253 µM,0.233
same,relative viability,NCI-H520; first compound 0.8 µM,0.311
same,relative viability,NCI-H520; first compound 2.53 µM,0.316
same,relative viability,NCI-H727; first compound 0.08 µM,0.567
same,relative viability,NCI-H727; first compound 0.253 µM,0.38
same,relative viability,NCI-H727; first compound 0.8 µM,0.395
same,relative viability,NCI-H727; first compound 2.53 µM,0.483
same,relative viability,NCI-H2087; first compound 0.08 µM,0.881
same,relative viability,NCI-H2087; first compound 0.253 µM,0.834
same,relative viability,NCI-H2087; first compound 0.8 µM,1.01
same,relative viability,NCI-H2087; first compound 2.53 µM,0.954
same,relative viability,H3255; first compound 0.08 µM,0.467
same,relative viability,H3255; first compound 0.253 µM,0.485
same,relative viability,H3255; first compound 0.8 µM,0.467
same,relative viability,H3255; first compound 2.53 µM,0.549
same,relative viability,NCI-H1651; first compound 0.08 µM,0.742
same,relative viability,NCI-H1651; first compound 0.253 µM,0.427
same,relative viability,NCI-H1651; first compound 0.8 µM,0.705
same,relative viability,NCI-H1651; first compound 2.53 µM,0.602
same,relative viability,A-427; first compound 0.08 µM,0.909
same,relative viability,A-427; first compound 0.253 µM,0.733
same,relative viability,A-427; first compound 0.8 µM,0.68
same,relative viability,A-427; first compound 2.53 µM,0.751
same,relative viability,ABC-1; first compound 0.08 µM,0.686
same,relative viability,ABC-1; first compound 0.253 µM,0.623
same,relative viability,ABC-1; first compound 0.8 µM,0.772
same,relative viability,ABC-1; first compound 2.53 µM,0.646
same,relative viability,NCI-H650; first compound 0.08 µM,0.921
same,relative viability,NCI-H650; first compound 0.253 µM,0.773
same,relative viability,NCI-H650; first compound 0.8 µM,0.743
same,relative viability,NCI-H650; first compound 2.53 µM,0.821
same,relative viability,BEN; first compound 0.08 µM,0.652
same,relative viability,BEN; first compound 0.253 µM,0.448
same,relative viability,BEN; first compound 0.8 µM,0.55
same,relative viability,BEN; first compound 2.53 µM,0.552
same,relative viability,NCI-H1650; first compound 0.08 µM,0.675
same,relative viability,NCI-H1650; first compound 0.8 µM,0.638
same,relative viability,NCI-H1650; first compound 2.53 µM,0.658
same,relative viability,NCI-H1944; first compound 0.08 µM,0.368
same,relative viability,NCI-H1944; first compound 0.253 µM,0.323
same,relative viability,NCI-H1944; first compound 0.8 µM,0.338
same,relative viability,NCI-H1944; first compound 2.53 µM,0.393
same,relative viability,NCI-H661; first compound 0.08 µM,0.43
same,relative viability,NCI-H661; first compound 0.253 µM,0.302
same,relative viability,NCI-H661; first compound 0.8 µM,0.391
same,relative viability,NCI-H661; first compound 2.53 µM,0.314
same,relative viability,LCLC-97TM1; first compound 0.08 µM,0.214
same,relative viability,LCLC-97TM1; first compound 0.253 µM,0.167
same,relative viability,LCLC-97TM1; first compound 0.8 µM,0.176
same,relative viability,LCLC-97TM1; first compound 2.53 µM,0.176
same,relative viability,NCI-H460; first compound 0.08 µM,0.351
same,relative viability,NCI-H460; first compound 0.253 µM,0.336
same,relative viability,NCI-H460; first compound 0.8 µM,0.327
same,relative viability,NCI-H460; first compound 2.53 µM,0.38
same,relative viability,NCI-H2023; first compound 0.08 µM,0.279
same,relative viability,NCI-H2023; first compound 0.253 µM,0.127
same,relative viability,NCI-H2023; first compound 0.8 µM,0.226
same,relative viability,NCI-H2023; first compound 2.53 µM,0.26
same,relative viability,PC-3 [JPC-3]; first compound 0.08 µM,0.756
same,relative viability,PC-3 [JPC-3]; first compound 0.253 µM,0.717
same,relative viability,PC-3 [JPC-3]; first compound 0.8 µM,0.647
same,relative viability,PC-3 [JPC-3]; first compound 2.53 µM,0.781
same,relative viability,201T; first compound 0.08 µM,0.725
same,relative viability,201T; first compound 0.253 µM,0.599
same,relative viability,201T; first compound 0.8 µM,0.628
same,relative viability,201T; first compound 2.53 µM,0.711
